We go through one compound from US20230061319A1, “METHODS OF TREATING TUMORS” (CoImmune, Inc., priority 2020, published 2023).

One data set relates to MART-1 specific CTLs. In words: MART-1 specific CTL effector function (IFN-γ, TNF-α, IL-2 secretion, CD107a expression). As to conditions: at the higher concentrations tested; compared to untreated CTLs. The data set is classed as cell-based, human. The method, then:
(§1) PME-CD40L DCs derived from HLA-A2-positive donors and transfected with antigen-encoding mRNAs were co-cultured with purified CD8^+ T cells. All co-cultures were performed in R-10 media. CD8^+ T cells were purified using the CD8+ T Cell Negative Selection Kit II (Miltenyi Biotec) from non-adherent cells harvested from the monocyte adherence step. The CD8^+ cells were mixed with DCs at a 10:1 ratio and incubated in the presence of 0.2 µg/mL IL-2 and 10 ng/mL IL-7 (R&D Systems). DC/T cell co-cultures were re-stimulated on day 7 and supplemented with 20 units/mL IL-2 plus 10 ng/mL IL-7. Induction of primary immune responses to MART-1 and memory/recall responses to CMV pp65 were measured on day 10.
To identify antigen-specific T cell responses and the phenotype of the antigen specific cells, T cells were harvested on day 10 post-stimulation and incubated with peptide-pulsed T2 target cells at a ratio of 10:1 for 4 hour with Brefeldin A, Monensin (BD Biosciences) and CD107a PE-Cy5. […] After 4 hours of co-culture, responder T cells were stained for 10 minutes with the requisite peptide/pentamer reagent, then washed once and re-stained with CD8-Eflour605, CD45RA-FITC, and CD28-APC. Cells were then washed in PBS and stained with Aquadye (BD Biosciences) for analysis of viability. Labeled cells were then fixed and permeabilized in Fixation/Permeabilization solution (eBiosciences). […]

The subject of data set [1] is healthy donor PBMC T cells. In words: Two-way MLR of HLA-mismatched healthy donor PBMCs with mRCC patient plasma with or without everolimus. It counts as cell-based, human. To be noted: MLR 7 days, 2% mRCC patient plasma. The method, then: PBMCs and DCs were thawed and washed in PBS (Lonza) prior to counting. Post maturation electroporated monocyte-derived dendritic cells (PME-CD40L) were generated from healthy donors as described in DeBenedette MA. et al., J Immunol. 181(8):5296-5305 (2008) (incorporated herein by reference in its entirety), and were co-electroporated with RNA encoding the pp65 CMV protein and RNA encoding CD40L. Viable cell counts were performed using BD TruCount Absolute Counting Tubes and propidium iodide (BD Biosciences) by flow cytometry. PBMCs and DCs were re-suspended in X-Vivo15 (with gentamicin and phenol red) (Lonza) containing 10% normal human AB serum (Valley biomedical). […] Frozen PBMC vials from 2 HLA-mismatched healthy donors were thawed and counted. […] Purified Mouse anti-human CD3 (clone OKT3, BD Biosciences) was used to stimulate healthy donor PBMCs in culture.
Given the observation that patients enrolled in the ADAPT study who received everolimus as 2nd line therapy after receiving DC therapy had better clinical outcomes, the concept that everolimus may reverse the immune suppressive activity of mRCC patient plasma and augment T cell responses was investigated. HLA-mismatched healthy donor PBMCs were mixed and cultured for 7 days in the presence of 2% mRCC patient plasma and with or without 20 ng of everolimus added on day 0, and the frequency of CD28^+ memory T cells was determined. […] However, this restoration was not statistically significant (p<0.087) when the suppressive activity of plasma samples collected from six individual mRCC patients was tested (FIG. 17C). In contrast, an increase in the frequency of proliferating CD28^-CD4 T cells was […] with plasma addition, which could be reversed with the addition of everolimus (FIG. 17D). A similar pattern was detected for CD8 T cells (a decrease in the frequency of proliferating CD28^+ CD8 T cells (FIG. 17E) and increase in the frequency of proliferating CD28^-CD8 T cells (FIG. 17F)) in the presence of plasma, which the addition of everolimus could reverse. […] To expand the understating whereby everolimus can reduce the immune suppressive impact of mRCC, patient plasma PBMCs were stimulated with autologous DCs presenting the pp65 CMV antigen. Healthy donor PBMCs and autologous DCs were mixed and cultured for 6 days in the presence of 2% mRCC patient plasma and with or without 20 ng of everolimus added on day 0. A small but reproducible frequency of proliferating CD28^+ CD4 T cells was induced, but very few CD28^-CD4 T cells (FIG. 18A left panel), which is unlike the CD4 T cell response seen in the MLR. […] A low frequency of proliferating CD28^- CD4 T cells was detected, and everolimus has little impact on the frequency of these cells (FIG. 18D).
Given the observation that plasma suppression selectively impacts the frequency of CD28^+ T cells and everolimus mediates a reduced suppression of this memory phenotype, the CD28^+ T cell subset was further characterized. HLA-mismatched healthy donor PBMCs were mixed and cultured for 7 days in the presence of 2% mRCC patient plasma and with or without 20 ng of everolimus added on day 0. […] Both the expression of CD25 and CD28 receptors on T cells are critical for full differentiation of memory T cells.
To understand the ability of everolimus to restore the frequency of CD25^+CD28^+ T cells, the expression of both CD25 and CD28 on CD8 T cells stimulated in the MLR or with autologous DCs in the presence of mRCC patient plasma was measured by the geometric mean fluorescence intensity (MFI).

The conditions of data set [2]: than rapamycin (sirolimus); cited from earlier work.
The test system of another data set is B cells. Briefly: TGF-β secretion by stimulated PBMCs from mRCC patients (ELISA). As to conditions: everolimus 10 ng/mL, 6 days, supernatant. Background: An ELISA detects its analyte on a solid surface through an enzyme-linked reagent.
For data set [3] the following is noted: than rapamycin (sirolimus); cited from earlier work. This is another data set of the same source.
A further data set deals with CMV pp65 specific CTLs. In words: CMV pp65 specific recall CTL effector function (IFN-γ, TNF-α, IL-2 secretion, CD107a expression). It counts as cell-based, human. The method, then:
as §1
To identify antigen-specific T cell responses and the phenotype of the antigen specific cells, T cells were harvested on day 10 post-stimulation and incubated with peptide-pulsed T2 target cells at a ratio of 10:1 for 4 hour with Brefeldin A, Monensin (BD Biosciences) and CD107a PE-Cy5. […] After 4 hours of co-culture, responder T cells were stained for 10 minutes with the requisite peptide/pentamer reagent, then washed once and re-stained with CD8-Eflour605, CD45RA-FITC, and CD28-APC. Cells were then washed in PBS and stained with Aquadye (BD Biosciences) for analysis of viability. Labeled cells were then fixed and permeabilized in Fixation/Permeabilization solution (eBiosciences). Cells where then stained with IFN-γ-PECy7, TNFa-AF700 and IL-2-PerCPcy5.5 in permeabilization buffer and resuspended in FACs buffer prior to acquisition.
To assess the impact mTOR inhibition would have on CTL effector function in vitro, CMV pp65 specific CTLs were assayed for the ability to secret the cytokines IFN-y, TNF-α and IL-2, and express the degranulation marker CD107a, which serves as a surrogate marker to measure lytic activity. Data presented in FIG. 2A and FIG. 2B measures the absolute numbers of CMV […] specific CTLs that secrete IFN-y, TNF-α or IL-2, or express CD107a in response to CMV pp65 peptide pulsed target cells. The absolute numbers of CMV^+ CTLs shown have been corrected for background non-specific responses to display only the antigen specific response for each parameter.

The mark [4] stands for this setting: 20 ng everolimus, statistically significant, six plasma samples.

Experimental for B cells: Frozen patient PBMC were thawed, counted, and washed in PBS. The cells were resuspended in X-VIVO 15 media (with gentamicin and phenol red; Lonza) at 2x10^6 cells/mL and incubated overnight in a 5% CO2 incubator at 37° C. The cells were counted and set up in culture at 1x10^6 cells/mL in X-VIVO 15 media. […] Everolimus (LC Laboratories) was added at 10 ng/mL to unstimulated or stimulated cultures. The cultures were incubated overnight in a 5% CO2 incubator at 37° C. for six days.
The concentration of total TGF-β1 in plasma and supernatant samples was quantified using the LEGEND MAX Total TGF-β1 ELISA Kit (Biolegend). Samples were prepared by acid treatment to activate latent TGF-β1 and then diluted 1:20 or 1:100 in assay buffer. Samples were incubated on a plate pre-coated with anti-TGF-β1 antibody for 2 hours. Anti-TGF-β1 was incubated for 1 hour, and the plate was washed and incubated with Avidin-HRP for 30 minutes. The plate was developed with TMB substrate solution and Stop solution, and was read at 450 nm and 570 nm using an ELx800 plate reader.
Thus, the impact of everolimus on B cell TGF-β production was investigated. PBMCs from mRCC patients were stimulated (“stim”) or left unstimulated (“control”) with or without everolimus addition as described in Example 1 to induce TGF-β secretion. TGF-β concentrations in the supernatant were measured after 6 days by ELISA.

As to `CO[C@H]1C[C@@H]2CC[C@@H](C)[C@@](O)(O2)C(=O)C(=O)N2CCCC[C@H]2C(=O)O[C@H]([C@H](C)C[C@@H]2CC[C@@H](OCCO)[C@H](OC)C2)CC(=O)[C@H](C)/C=C(\C)[C@@H](O)[C@@H](OC)C(=O)[C@H](C)C[C@H](C)/C=C/C=C/C=C/1C` [everolimus], in the data set on MART-1 specific CTLs, the “numbers of MART-1+ CTL secreting a cytokine or expressing CD107a” value was “increased”. For the same compound, in data set [1] (20 ng everolimus), the “expression of CD25 on CD8 T cells (MFI)” value is recorded as “statistically significant increase” and the “expression of CD28 on CD8 T cells (MFI)” value is reported as “statistically significant increase”. Besides, the “plasma-induced change in frequency of proliferating CD28- CD4 T cells” value in data set [1] (20 ng everolimus on day 0) is recorded as “reversed”. Further, the “frequency of proliferating CD28+ CD4 T cells reduced by mRCC patient plasma” value in data set [1] (20 ng everolimus on day 0, not statistically significant (p<0.087), six plasma samples) is recorded as “partially restored”. The “frequency of CD25+CD28- CD8 T cells among CD25+ CD8 T cells” value in data set [1] (20 ng everolimus, p< 0.001) is listed as “no longer represented the dominant population”. The “frequency of CD25+CD28+ CD8 T cells” value in data set [1] (20 ng everolimus, p< 0.0061) is reported as “partial restoration”. Further, in data set [1] (20 ng everolimus, p< 0.045), the “frequency of CD25+CD28+ CD4 T cells” value is “partial restoration”. Further, in data set [1] (setting [4]), the “plasma-induced decrease in frequency of proliferating CD28+ CD8 T cells” value is “reverse” and the “plasma-induced increase in frequency of proliferating CD28- CD8 T cells” value was “reverse”. Further, the side effects result in data set [2] is reported as “fewer”. Also, the “concentration of TGF-β secreted by stimulated B cells” value in the data set on B cells is on record as “decrease”. Further, in data set [3], the “solubility in organic solvents” value is recorded as “enhanced” and the stability result is on record as “greater”. For the same compound, the “numbers of CMV+ CTL secreting a cytokine or expressing CD107a” value in the data set with CMV pp65 specific CTLs (10 ng/ml, compared to untreated CTLs) is listed as “increased”. In addition, the “increase in effector function of CMV+ CTL” value in the data set on CMV pp65 specific CTLs (1 µg/ml) is on record as “maintained”.
